# Results taken from ChEMBL document CHEMBL5620399, “Discovery of orally active sulfonylphenyl thieno[3,2-d]pyrimidine derivatives as GPR119 agonists” (Eur J Med Chem, 2023).
# Key:
# [1] = biological target: T1, Glucose-dependent insulinotropic receptor (Homo sapiens, UniProt Q8TDV5); assay: Agonist activity at human GPR119 expressed in CHO-K1 cells preincubated for 5 hrs followed by substrate addition measured after 2 hrs by fluorescence based assay; assay type: functional, cell-based
# T1 sequence (Q8TDV5 whole entry): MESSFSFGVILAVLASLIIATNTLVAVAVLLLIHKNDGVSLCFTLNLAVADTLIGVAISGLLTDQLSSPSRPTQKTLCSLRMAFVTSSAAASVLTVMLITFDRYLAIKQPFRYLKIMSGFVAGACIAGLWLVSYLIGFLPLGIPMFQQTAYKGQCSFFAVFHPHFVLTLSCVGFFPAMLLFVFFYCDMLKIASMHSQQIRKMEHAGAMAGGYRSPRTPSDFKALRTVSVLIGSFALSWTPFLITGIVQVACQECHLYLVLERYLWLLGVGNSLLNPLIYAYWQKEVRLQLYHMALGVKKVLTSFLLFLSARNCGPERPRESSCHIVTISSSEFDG
# [2] = Agonist activity at GPR119 in Golden hamster HIT-T15 cells assessed as increase in intracellular cAMP level incubated for 1 hr by fluorescence based assay; assay type: cell-based; conditions: Mesocricetus auratus, HIT-T15, 1 h
# [3] = Microsomal stability in human liver microsomes assessed as compound remaining at 5 uM measured after 60 mins in presence of NADPH by HPLC analysis; assay type: ADME, Microsome; conditions: read-out: Stability
# [4] = Microsomal stability in dog liver microsomes assessed as compound remaining at 5 uM measured after 60 mins in presence of NADPH by HPLC analysis; assay type: ADME, Canis lupus familiaris, Microsome; conditions: read-out: Stability
# [5] = Microsomal stability in rat liver microsomes assessed as compound remaining at 5 uM measured after 60 mins in presence of NADPH by HPLC analysis; assay type: ADME, Microsome; conditions: read-out: Stability
# [6] = Microsomal stability in mouse liver microsomes assessed as compound remaining at 5 uM measured after 60 mins in presence of NADPH by HPLC analysis; assay type: ADME, Microsome; conditions: read-out: Stability
# Cytochrome P450 3A4 = Cytochrome P450 3A4 (Homo sapiens, UniProt P08684); assay: Inhibition of CYP3A4 (unknown origin) using 7-benzyloxy-4-trifluoromethylcoumarin as substrate preincubated for 10 mins followed by addition of NADPH generating system measured after 30 mins by fluorescence based assay; assay type: ADME
# Cytochrome P450 1A2 = biological target: T2, Cytochrome P450 1A2 (Homo sapiens, UniProt P05177); assay: Inhibition of CYP1A2 (unknown origin) using 7-ethoxy-3-cyanocoumarin as substrate preincubated for 10 mins followed by addition of NADPH generating system measured after 30 mins by fluorescence based assay; assay type: ADME
# T2 sequence (P05177 whole entry): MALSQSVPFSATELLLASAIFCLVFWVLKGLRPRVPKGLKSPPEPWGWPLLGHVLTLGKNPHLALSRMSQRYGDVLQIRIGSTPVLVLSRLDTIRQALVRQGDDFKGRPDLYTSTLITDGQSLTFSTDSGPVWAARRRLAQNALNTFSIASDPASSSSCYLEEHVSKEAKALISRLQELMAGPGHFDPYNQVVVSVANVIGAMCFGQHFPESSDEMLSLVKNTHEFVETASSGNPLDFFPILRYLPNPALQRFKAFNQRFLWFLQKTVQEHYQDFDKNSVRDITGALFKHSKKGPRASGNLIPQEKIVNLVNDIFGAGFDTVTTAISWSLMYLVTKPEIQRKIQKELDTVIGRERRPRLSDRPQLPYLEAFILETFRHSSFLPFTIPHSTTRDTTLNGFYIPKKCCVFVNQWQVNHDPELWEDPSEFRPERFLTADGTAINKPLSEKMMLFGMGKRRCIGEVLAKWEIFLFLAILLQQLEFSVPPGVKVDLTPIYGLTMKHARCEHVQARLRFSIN
# Cytochrome P450 2C9 = Cytochrome P450 2C9 (Homo sapiens, UniProt P11712); assay: Inhibition of CYP2C9 (unknown origin) using 7-methoxy-4-trifluoromethylcoumarin as substrate preincubated for 10 mins followed by addition of NADPH generating system measured after 30 mins by fluorescence based assay; assay type: ADME
# Cytochrome P450 2C19 = Cytochrome P450 2C19 (Homo sapiens, UniProt P33261); assay: Inhibition of CYP2C19 (unknown origin) using 7-ethoxy-3-cyanocoumarin as substrate preincubated for 10 mins followed by addition of NADPH generating system measured after 30 mins by fluorescence based assay; assay type: ADME
# Cytochrome P450 2D6 = Cytochrome P450 2D6 (Homo sapiens, UniProt P10635); assay: Inhibition of CYP2D6 (unknown origin) using 3-[2-(N,N-diethyl-N-methylammonium)ethyl]-7-methoxy-4-methylcoumarin as substrate preincubated for 10 mins followed by addition of NADPH generating system measured after 30 mins by fluorescence based assay; assay type: ADME
# [7] = Half life in ICR mouse at 1 mg/kg, iv; assay type: ADME, organism-based; conditions: in vivo
# [8] = AUC (0 to 24 hrs) in ICR mouse at 1 mg/kg, iv; assay type: ADME, organism-based; conditions: in vivo
# [9] = Clearance in ICR mouse at 1 mg/kg, iv; assay type: ADME, organism-based; conditions: in vivo
# [10] = Volume of distribution in ICR mouse at 1 mg/kg, iv; assay type: ADME, organism-based; conditions: in vivo
# [11] = MRTlast in ICR mouse at 1 mg/kg, iv; assay type: ADME, organism-based; conditions: in vivo
# [12] = Cmax in ICR mouse at 10 mg/kg, po; assay type: ADME, organism-based; conditions: in vivo
# [13] = Tmax in ICR mouse at 10 mg/kg, po; assay type: ADME, organism-based; conditions: in vivo
# [14] = Half life in ICR mouse at 10 mg/kg, po; assay type: ADME, organism-based; conditions: in vivo
# [15] = AUC (0 to 24 hrs) in ICR mouse at 10 mg/kg, po; assay type: ADME, organism-based; conditions: in vivo
# [16] = MRTlast in ICR mouse at 10 mg/kg, po; assay type: ADME, organism-based; conditions: in vivo
# [17] = Oral bioavailability in ICR mouse at 10 mg/kg; assay type: ADME, organism-based; conditions: in vivo
# [18] = Half life in Sprague-Dawley rat at 1 mg/kg, iv; assay type: ADME, organism-based; conditions: in vivo
# [19] = AUC (0 to 24 hrs) in Sprague-Dawley rat at 1 mg/kg, iv; assay type: ADME, organism-based; conditions: in vivo
# [20] = Clearance in Sprague-Dawley rat at 1 mg/kg, iv; assay type: ADME, organism-based; conditions: in vivo
# [21] = Volume of distribution in Sprague-Dawley rat at 1 mg/kg, iv; assay type: ADME, organism-based; conditions: in vivo
# [22] = MRTlast in Sprague-Dawley rat at 1 mg/kg, iv; assay type: ADME, organism-based; conditions: in vivo
# [23] = Cmax in Sprague-Dawley rat at 5 mg/kg, po; assay type: ADME, organism-based; conditions: in vivo
# [24] = Tmax in Sprague-Dawley rat at 5 mg/kg, po; assay type: ADME, organism-based; conditions: in vivo
# [25] = Half life in Sprague-Dawley rat at 5 mg/kg, po; assay type: ADME, organism-based; conditions: in vivo
# [26] = AUC (0 to 24 hrs) in Sprague-Dawley rat at 5 mg/kg, po; assay type: ADME, organism-based; conditions: in vivo
# [27] = MRTlast in Sprague-Dawley rat at 5 mg/kg, po; assay type: ADME, organism-based; conditions: in vivo
# [28] = Oral bioavailability in Sprague-Dawley rat at 5 mg/kg; assay type: ADME, organism-based; conditions: in vivo
# Mus musculus = assay: Anti-diabetic activity in C57BL mouse assessed as reduction in AUC (0 to 2 hrs) at 3 mg/kg, po followed by oral administration of glucose measured for 2 hrs by OGTT assay relative to control; assay type: functional; design: scale not given: the % may be the effect or the level left
# Rattus norvegicus = assay: Anti-diabetic activity in Sprague-Dawley rat assessed as reduction in AUC (0 to 2 hrs) at 3 mg/kg, po followed by oral administration of glucose measured for 2 hrs by OGTT assay relative to control; assay type: functional; design: scale not given: the % may be the effect or the level left
# Chain of Cytochrome P450 2C9 (P11712 whole entry): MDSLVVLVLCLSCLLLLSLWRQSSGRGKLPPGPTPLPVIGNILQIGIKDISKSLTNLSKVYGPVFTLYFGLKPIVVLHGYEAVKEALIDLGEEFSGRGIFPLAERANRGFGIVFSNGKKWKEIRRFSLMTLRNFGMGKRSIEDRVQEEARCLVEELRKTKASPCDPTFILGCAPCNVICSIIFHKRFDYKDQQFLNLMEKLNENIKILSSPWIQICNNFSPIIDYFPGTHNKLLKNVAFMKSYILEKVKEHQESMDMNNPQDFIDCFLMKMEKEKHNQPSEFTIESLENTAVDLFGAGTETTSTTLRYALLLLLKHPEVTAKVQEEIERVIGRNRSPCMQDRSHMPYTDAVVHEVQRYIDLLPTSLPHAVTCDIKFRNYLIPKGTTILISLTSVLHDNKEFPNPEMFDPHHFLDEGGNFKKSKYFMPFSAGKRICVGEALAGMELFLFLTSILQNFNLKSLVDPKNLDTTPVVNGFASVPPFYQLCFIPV
# Chain of Cytochrome P450 2C19 (P33261 whole entry): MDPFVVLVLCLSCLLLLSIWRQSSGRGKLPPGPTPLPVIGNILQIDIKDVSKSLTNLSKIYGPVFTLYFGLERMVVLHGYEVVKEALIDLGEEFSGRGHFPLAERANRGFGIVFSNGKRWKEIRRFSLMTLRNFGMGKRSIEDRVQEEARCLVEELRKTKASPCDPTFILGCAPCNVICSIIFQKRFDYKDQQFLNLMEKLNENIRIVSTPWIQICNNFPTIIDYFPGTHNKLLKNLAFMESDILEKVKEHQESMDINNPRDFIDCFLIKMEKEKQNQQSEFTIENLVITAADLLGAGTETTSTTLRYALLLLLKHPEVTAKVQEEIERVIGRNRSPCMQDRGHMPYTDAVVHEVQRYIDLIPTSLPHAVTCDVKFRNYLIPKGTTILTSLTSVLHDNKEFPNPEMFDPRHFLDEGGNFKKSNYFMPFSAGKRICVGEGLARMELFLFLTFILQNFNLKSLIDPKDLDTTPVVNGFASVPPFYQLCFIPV
# Chain of Cytochrome P450 2D6 (P10635 whole entry): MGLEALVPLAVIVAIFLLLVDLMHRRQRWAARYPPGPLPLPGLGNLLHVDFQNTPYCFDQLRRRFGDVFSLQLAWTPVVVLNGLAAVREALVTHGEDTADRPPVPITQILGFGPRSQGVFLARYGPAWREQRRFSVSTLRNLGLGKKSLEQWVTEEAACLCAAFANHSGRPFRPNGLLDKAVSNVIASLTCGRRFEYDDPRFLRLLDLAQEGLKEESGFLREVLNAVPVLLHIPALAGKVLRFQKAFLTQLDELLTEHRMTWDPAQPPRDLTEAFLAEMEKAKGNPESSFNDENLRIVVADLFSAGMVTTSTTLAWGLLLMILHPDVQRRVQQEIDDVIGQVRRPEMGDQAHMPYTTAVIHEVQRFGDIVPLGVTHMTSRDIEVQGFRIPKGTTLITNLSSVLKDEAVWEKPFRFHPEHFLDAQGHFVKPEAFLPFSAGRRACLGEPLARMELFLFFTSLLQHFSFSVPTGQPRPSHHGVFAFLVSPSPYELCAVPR
# Chain of Cytochrome P450 3A4 (P08684 whole entry): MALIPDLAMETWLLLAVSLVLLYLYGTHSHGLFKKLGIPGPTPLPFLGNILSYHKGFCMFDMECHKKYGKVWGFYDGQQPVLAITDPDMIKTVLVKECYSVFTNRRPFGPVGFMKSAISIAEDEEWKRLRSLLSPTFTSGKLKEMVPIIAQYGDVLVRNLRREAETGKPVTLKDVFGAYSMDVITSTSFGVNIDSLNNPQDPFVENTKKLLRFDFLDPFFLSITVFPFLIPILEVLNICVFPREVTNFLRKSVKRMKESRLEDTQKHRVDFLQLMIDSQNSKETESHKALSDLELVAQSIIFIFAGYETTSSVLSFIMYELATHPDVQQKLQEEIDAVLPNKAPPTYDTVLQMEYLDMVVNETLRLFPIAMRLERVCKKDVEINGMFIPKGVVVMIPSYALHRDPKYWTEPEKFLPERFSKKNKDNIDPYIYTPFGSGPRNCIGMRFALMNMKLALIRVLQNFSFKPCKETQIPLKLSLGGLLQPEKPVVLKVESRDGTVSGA
structure (smiles),measurement,setting,value
CC(C)(C)OC(=O)N1CCC(Nc2ncnc3c(-c4ccc(S(C)(=O)=O)cc4)csc23)CC1,EC50,[1],> 100 nM
CN(c1ncnc2c(-c3ccc(S(C)(=O)=O)cc3)csc12)C1CCN(C(=O)OC(C)(C)C)CC1,EC50,[1],33.8 nM
same,EC50,[2],19.1 nM
CCc1cnc(N2CCC(N(C)c3ncnc4c(-c5ccc(S(C)(=O)=O)cc5)csc34)CC2)nc1,EC50,[1],7.4 nM
same,EC50,[2],35.9 nM
CS(=O)(=O)c1ccc(-c2csc3c(OC4CCNCC4)ncnc23)c(F)c1,EC50,[1],> 100 nM
CCN(c1ncnc2c(-c3ccc(S(C)(=O)=O)cc3)csc12)C1CCN(c2ccc(C(F)(F)F)cn2)CC1,EC50,[1],> 100 nM
CS(=O)(=O)c1ccc(-c2csc3c(N4CCCCC4)ncnc23)cc1,EC50,[1],> 100 nM
CC(C)c1noc(N2CCC(Oc3ncnc4c(-c5ccc(S(C)(=O)=O)cc5F)csc34)CC2)n1,EC50,[1],6.3 nM
same,EC50,[2],22.8 nM
same,"remaining at 1 h, 5 µM",[3],35%
same,"remaining at 1 h, 5 µM",[4],62%
same,"remaining at 1 h, 5 µM",[5],48%
same,"remaining at 1 h, 5 µM",[6],38%
same,IC50,Cytochrome P450 3A4,3790 nM
same,IC50,Cytochrome P450 1A2,> 50000 nM
same,IC50,Cytochrome P450 2C9,> 50000 nM
same,IC50,Cytochrome P450 2C19,5550 nM
same,IC50,Cytochrome P450 2D6,> 50000 nM
same,half-life,[7],3.4 h
same,AUC(0-t),[8],2770 ng·h/mL
same,clearance,[9],5 mL/min/kg
same,Vd,[10],1.2 L/kg
same,MRT last,[11],3 h
same,Cmax,[12],9130 ng/mL
same,Tmax,[13],0.5 h
same,half-life,[14],2.2 h
same,AUC(0-t),[15],32700 ng·h/mL
same,MRT last,[16],3.8 h
same,bioavailability,[17],> 100%
same,half-life,[18],2.8 h
same,AUC(0-t),[19],1860 ng·h/mL
same,clearance,[20],5 mL/min/kg
same,Vd,[21],1.2 L/kg
same,MRT last,[22],3.6 h
same,Cmax,[23],1480 ng/mL
same,Tmax,[24],1 h
same,half-life,[25],2.4 h
same,AUC(0-t),[26],5720 ng·h/mL
same,MRT last,[27],3.2 h
same,bioavailability,[28],61.5%
same,Activity,Mus musculus,37.4%
same,Activity,Rattus norvegicus,15%
CS(=O)(=O)c1ccc(-c2csc3c(N4CCC(c5nc(C6CCCCC6)no5)CC4)ncnc23)cc1,EC50,[1],12.5 nM
same,EC50,[2],32.5 nM
CS(=O)(=O)c1ccc(-c2csc3c(OC4CCN(c5nc(C6CC6)no5)CC4)ncnc23)cc1,EC50,[1],24.8 nM
same,EC50,[2],47 nM
CCc1cnc(N2CCC(N(CC)c3ncnc4c(-c5ccc(S(C)(=O)=O)cc5)csc34)CC2)nc1,EC50,[1],15 nM
same,EC50,[2],153 nM
CN1CCC(Oc2ncnc3c(-c4ccc(S(C)(=O)=O)cc4F)csc23)CC1,EC50,[1],> 100 nM
CCN(c1ncnc2c(-c3ccc(S(C)(=O)=O)cc3)csc12)C1CCN(C(=O)OC(C)(C)C)CC1,EC50,[1],> 100 nM
CS(=O)(=O)c1ccc(-c2csc3c(OC4CCN(c5nc(C6CCCC6)no5)CC4)ncnc23)cc1,EC50,[1],5.6 nM
same,EC50,[2],> 1000 nM
CS(=O)(=O)c1ccc(-c2csc3c(N4CCCC4)ncnc23)cc1,EC50,[1],> 100 nM
CC(C)c1noc(N2CCC(Oc3ncnc4c(-c5ccc(S(C)(=O)=O)cc5)csc34)C2)n1 (configuration not stated),EC50,[1],754 nM
CC(C)(C)OC(=O)N1CCC(Oc2ncnc3c(-c4ccc(S(C)(=O)=O)cc4F)csc23)CC1,EC50,[1],1.4 nM
CC(C)c1noc(C2CCN(c3ncnc4c(-c5ccc(S(C)(=O)=O)cc5)csc34)CC2)n1,EC50,[1],11.7 nM
same,EC50,[2],11.5 nM
same,"remaining at 1 h, 5 µM",[3],13%
same,"remaining at 1 h, 5 µM",[4],6%
same,"remaining at 1 h, 5 µM",[6],21%
same,IC50,Cytochrome P450 3A4,12000 nM
same,IC50,Cytochrome P450 1A2,> 50000 nM
same,IC50,Cytochrome P450 2C9,< 620 nM
same,IC50,Cytochrome P450 2C19,3680 nM
same,IC50,Cytochrome P450 2D6,> 50000 nM
CC(C)(C)c1noc(N2CCC(Oc3ncnc4c(-c5ccc(S(C)(=O)=O)cc5F)csc34)CC2)n1,EC50,[1],3.6 nM
CCc1cnc(N2CCC(Oc3ncnc4c(-c5ccc(S(C)(=O)=O)cc5)csc34)C2)nc1 (configuration not stated),EC50,[1],74.8 nM
CCCc1noc(N2CCC(Oc3ncnc4c(-c5ccc(S(C)(=O)=O)cc5F)csc34)CC2)n1,EC50,[1],2.1 nM
CS(=O)(=O)c1ccc(-c2csc3c(N4CCC(c5nc(C6CCCC6)no5)CC4)ncnc23)cc1,EC50,[1],8.7 nM
same,EC50,[2],16 nM
same,"remaining at 1 h, 5 µM",[4],10%
same,"remaining at 1 h, 5 µM",[5],9%
same,"remaining at 1 h, 5 µM",[6],23%
CS(=O)(=O)c1ccc(-c2csc3c(N4CCC(c5nc(C6CCCC6)no5)CC4)ncnc23)c(F)c1,EC50,[1],1.9 nM
same,EC50,[2],86.3 nM
CS(=O)(=O)c1ccc(-c2csc3c(N4CCC(c5nc(C6CC6)no5)CC4)ncnc23)cc1,EC50,[1],23.9 nM
same,EC50,[2],16.8 nM
CCc1cnc(N2CCC(c3nc(COc4ccc(-n5cnnn5)cc4)cs3)CC2)nc1 [MBX-2982],EC50,[1],3.1 nM
same,EC50,[2],2 nM
same,Activity,Mus musculus,29%
same,Activity,Rattus norvegicus,7.3%
